Assays:
[1] = test system: HeLa cells; assay: cells; type: cell-based; conditions: for Hela CellCycMod PI 2N IC50/EC50: assay number 14; for Hela CellCycMod PI S Phase IC50/EC50: assay number 15; for Hela CellCycMod PI 4N IC50/EC50: assay number 16; for Hela CellCycMod PI MI IC50/EC50: assay number 17; for Hela CellCycMod PI Cell Number IC50/EC50: assay number 18
[2] = test system: Colo320; assay: cells; type: cell-based; conditions: for Basal_Viability ATP Colo 320 IC50/EC50: assay number 27
[3] = test system: DLD-1; assay: cells; type: cell-based; conditions: for Basal_Viability ATP DLD-1 IC50/EC50: assay number 23
[4] = test system: alkaline phosphatase (ALP) activity in C2C12 cells; type: cell-based; conditions: concentration response; for WntCondMedia_Alk Phos C2C12 IC50/EC50: assay number 6
[5] = test system: SW480; assay: cells; type: cell-based; conditions: for Basal_Viability ATP SW480 IC50/EC50: assay number 24
[6] = target: T1, hKDR (Homo sapiens, UniProt P35968); assay: Cerep LANCE kinase assay hKDR (S1 assay 32); type: biochemical; conditions: for hKDR LANCE IC50/EC50: assay number 32
T1 construct: purchased Cerep (LANCE kinase assay platform, contract assay)
T1 sequence (P35968 20-1356): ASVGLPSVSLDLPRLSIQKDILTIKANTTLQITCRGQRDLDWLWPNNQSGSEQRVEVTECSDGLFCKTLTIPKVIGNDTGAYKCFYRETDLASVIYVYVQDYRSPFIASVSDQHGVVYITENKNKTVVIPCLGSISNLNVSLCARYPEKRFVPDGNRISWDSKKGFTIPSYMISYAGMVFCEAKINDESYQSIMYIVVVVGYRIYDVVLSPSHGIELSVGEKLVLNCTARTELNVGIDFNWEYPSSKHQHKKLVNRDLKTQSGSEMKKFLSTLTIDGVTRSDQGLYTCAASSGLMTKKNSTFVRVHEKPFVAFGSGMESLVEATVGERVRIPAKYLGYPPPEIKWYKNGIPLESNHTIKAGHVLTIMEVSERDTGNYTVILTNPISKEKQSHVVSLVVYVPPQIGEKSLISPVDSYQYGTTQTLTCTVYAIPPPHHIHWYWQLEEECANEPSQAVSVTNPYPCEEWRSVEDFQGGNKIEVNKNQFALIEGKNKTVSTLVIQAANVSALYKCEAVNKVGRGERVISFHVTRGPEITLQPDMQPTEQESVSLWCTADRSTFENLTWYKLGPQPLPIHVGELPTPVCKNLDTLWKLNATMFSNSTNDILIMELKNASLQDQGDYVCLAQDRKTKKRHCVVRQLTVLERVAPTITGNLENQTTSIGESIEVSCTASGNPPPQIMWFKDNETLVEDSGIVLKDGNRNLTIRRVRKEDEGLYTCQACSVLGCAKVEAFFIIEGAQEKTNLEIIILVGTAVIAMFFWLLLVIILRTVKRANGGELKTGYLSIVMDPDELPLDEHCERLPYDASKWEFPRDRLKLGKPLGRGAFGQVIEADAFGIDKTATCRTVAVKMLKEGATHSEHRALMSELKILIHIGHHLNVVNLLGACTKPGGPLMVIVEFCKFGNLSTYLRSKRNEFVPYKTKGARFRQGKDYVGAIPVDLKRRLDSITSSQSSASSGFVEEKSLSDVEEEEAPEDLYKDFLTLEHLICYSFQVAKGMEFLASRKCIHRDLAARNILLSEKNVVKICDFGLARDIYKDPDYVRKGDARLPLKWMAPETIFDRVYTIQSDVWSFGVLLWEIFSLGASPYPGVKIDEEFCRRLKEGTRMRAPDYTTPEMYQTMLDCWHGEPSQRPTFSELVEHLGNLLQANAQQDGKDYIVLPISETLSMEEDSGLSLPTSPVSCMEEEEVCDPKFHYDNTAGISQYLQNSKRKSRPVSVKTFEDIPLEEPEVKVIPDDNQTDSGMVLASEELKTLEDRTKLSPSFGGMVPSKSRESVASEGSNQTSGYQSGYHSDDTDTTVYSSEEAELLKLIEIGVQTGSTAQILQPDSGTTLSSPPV

[7] = test system: HCT116; assay: cells; type: cell-based; conditions: basal; for Basal_Viability ATP HCT116 IC50/EC50: assay number 25
[8] = test system: HCT116 cells treated with a GSK3β inhibitor; assay: cells; type: cell-based; conditions: for GSK3b inh pretreated_Viability ATP HCT116 IC50/EC50: assay number 26, GSK3b inhibitor pretreated
[9] = target: T2, hp70S6K1 (RPS6KB1) (Homo sapiens, UniProt P23443); assay: Cerep LANCE kinase assay hp70S6K1 (S1 assay 31); type: biochemical; conditions: for hp70S6K1 LANCE IC50/EC50: assay number 31
T2 construct: purchased Cerep (LANCE kinase assay platform, contract assay)
T2 sequence (P23443 whole entry): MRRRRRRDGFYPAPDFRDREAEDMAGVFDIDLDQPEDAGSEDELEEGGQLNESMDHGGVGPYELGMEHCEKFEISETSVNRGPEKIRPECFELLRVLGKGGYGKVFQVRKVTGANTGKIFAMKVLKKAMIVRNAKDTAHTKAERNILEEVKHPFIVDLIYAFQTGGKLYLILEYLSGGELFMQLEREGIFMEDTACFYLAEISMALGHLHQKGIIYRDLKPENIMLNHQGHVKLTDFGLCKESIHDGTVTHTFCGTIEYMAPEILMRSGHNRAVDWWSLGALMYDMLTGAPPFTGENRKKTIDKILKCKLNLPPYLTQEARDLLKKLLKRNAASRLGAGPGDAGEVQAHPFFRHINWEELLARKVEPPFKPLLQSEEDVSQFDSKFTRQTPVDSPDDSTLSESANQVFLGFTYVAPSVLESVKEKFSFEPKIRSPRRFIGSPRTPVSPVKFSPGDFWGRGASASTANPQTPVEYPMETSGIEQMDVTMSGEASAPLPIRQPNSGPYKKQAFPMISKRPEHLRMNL

[10] = test system: HT-29; assay: cells; type: cell-based; conditions: for Basal_Viability ATP HT-29 IC50/EC50: assay number 28
[11] = test system: nuclear β-catenin in C2C12 cells; assay: cells; type: cell-based; conditions: concentration response; for WntCondMedia_bCatenin C2C12 IC50/EC50: assay number 5
[12] = test system: ECFC/ADSC co-culture cell nuclei number
[13] = target: T3, hGSK3b (Homo sapiens, UniProt P49841); assay: Cerep LANCE kinase assay hGSK3b (S1 assay 34); type: biochemical; conditions: for hGSK3b LANCE IC50/EC50: assay number 34
T3 construct: purchased Cerep (LANCE kinase assay platform, contract assay)
T3 sequence (P49841 whole entry): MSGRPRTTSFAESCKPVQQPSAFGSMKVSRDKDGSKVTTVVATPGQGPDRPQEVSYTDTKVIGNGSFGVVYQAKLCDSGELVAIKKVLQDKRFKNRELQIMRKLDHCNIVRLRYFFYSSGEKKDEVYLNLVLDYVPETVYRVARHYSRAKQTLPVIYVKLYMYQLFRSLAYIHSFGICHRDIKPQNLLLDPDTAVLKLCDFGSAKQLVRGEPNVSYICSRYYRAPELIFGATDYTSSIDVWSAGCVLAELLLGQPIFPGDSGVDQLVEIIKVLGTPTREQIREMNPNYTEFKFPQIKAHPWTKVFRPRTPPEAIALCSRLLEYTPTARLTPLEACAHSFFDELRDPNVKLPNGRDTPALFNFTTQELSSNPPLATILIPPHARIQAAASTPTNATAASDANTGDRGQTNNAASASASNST

[14] = target: T4, hFLT3 (Homo sapiens, UniProt P36888); assay: Cerep LANCE kinase assay hFLT3 (S1 assay 35); type: biochemical; conditions: for hFLT3 LANCE IC50/EC50: assay number 35
T4 construct: purchased Cerep (LANCE kinase assay platform, contract assay)
T4 sequence (P36888 27-993): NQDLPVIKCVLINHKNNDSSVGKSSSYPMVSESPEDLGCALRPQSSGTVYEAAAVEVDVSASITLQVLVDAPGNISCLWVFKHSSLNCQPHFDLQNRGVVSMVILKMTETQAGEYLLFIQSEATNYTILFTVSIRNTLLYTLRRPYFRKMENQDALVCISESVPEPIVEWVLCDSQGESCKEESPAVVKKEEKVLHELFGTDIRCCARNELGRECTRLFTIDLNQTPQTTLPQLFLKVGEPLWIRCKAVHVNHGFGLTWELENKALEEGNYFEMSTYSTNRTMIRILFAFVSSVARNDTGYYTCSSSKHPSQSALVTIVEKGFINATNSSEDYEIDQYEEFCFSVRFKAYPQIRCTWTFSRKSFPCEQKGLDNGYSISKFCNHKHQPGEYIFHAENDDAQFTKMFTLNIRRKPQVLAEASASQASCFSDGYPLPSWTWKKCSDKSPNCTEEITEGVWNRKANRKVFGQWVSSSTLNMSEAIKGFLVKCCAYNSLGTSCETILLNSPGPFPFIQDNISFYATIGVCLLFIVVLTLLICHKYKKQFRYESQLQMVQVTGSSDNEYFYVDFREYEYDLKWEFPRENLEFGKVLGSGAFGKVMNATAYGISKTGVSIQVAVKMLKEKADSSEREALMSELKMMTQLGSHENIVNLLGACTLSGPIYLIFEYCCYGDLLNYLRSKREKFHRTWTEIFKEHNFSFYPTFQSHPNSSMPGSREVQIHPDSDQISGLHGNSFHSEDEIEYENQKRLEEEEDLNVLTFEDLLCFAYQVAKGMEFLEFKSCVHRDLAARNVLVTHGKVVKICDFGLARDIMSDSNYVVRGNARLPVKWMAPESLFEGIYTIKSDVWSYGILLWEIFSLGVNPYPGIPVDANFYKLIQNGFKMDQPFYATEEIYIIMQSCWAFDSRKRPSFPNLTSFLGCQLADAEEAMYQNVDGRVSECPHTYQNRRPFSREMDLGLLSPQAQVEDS

[15] = test system: RKO; assay: cells; type: cell-based; conditions: for Basal_Viability ATP RKO IC50/EC50: assay number 29
[16] = target: T5, hJAK2 (Homo sapiens, UniProt O60674); assay: Cerep LANCE kinase assay hJAK2 (S1 assay 33); type: biochemical; conditions: for hJAK2 LANCE IC50/EC50: assay number 33
T5 construct: purchased Cerep (LANCE kinase assay platform, contract assay)
T5 sequence (O60674 whole entry): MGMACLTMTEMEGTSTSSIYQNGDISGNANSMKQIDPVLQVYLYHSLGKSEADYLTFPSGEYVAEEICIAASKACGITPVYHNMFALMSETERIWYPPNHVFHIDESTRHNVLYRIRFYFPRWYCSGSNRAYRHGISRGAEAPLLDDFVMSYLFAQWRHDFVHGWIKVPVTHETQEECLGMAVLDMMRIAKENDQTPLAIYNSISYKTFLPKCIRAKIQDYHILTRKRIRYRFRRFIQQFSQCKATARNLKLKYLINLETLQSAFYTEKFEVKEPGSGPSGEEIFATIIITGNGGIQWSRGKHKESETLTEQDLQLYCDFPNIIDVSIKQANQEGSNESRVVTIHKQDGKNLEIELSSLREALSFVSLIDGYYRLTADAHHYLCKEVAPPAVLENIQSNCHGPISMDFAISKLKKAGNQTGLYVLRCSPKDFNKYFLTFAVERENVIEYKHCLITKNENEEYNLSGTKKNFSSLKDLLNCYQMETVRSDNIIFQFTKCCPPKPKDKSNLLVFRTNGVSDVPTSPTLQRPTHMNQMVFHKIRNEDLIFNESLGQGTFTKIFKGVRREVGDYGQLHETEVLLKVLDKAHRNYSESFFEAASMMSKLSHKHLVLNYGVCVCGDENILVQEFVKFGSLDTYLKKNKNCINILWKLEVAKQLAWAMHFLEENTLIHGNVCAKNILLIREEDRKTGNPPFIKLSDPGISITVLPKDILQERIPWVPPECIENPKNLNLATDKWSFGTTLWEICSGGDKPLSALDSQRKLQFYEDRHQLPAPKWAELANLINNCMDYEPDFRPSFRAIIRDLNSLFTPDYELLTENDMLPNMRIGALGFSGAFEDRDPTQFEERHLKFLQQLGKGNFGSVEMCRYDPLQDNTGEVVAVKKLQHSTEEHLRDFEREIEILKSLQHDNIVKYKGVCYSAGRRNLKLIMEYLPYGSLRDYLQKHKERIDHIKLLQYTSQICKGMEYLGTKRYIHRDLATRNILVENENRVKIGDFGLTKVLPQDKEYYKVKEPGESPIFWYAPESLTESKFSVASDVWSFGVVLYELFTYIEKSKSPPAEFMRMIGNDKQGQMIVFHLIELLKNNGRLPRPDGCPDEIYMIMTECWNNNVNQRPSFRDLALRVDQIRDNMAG

[17] = test system: SNU-C1; assay: cells; type: cell-based; conditions: for Basal_Viability ATP SNU-C1 IC50/EC50: assay number 30
[18] = test system: endothelial tube formation in co-cultures of ECFCs and ADSCs treated with VEGF; assay: cells; type: cell-based, human
[19] = test system: STC-1 cell line; type: cell-based, mouse; conditions: assay number 13
[20] = test system: NCI-H716 cells; assay: cells; type: cell-based, Human; conditions: assay number 12
[21] = test system: INS-1E cells; assay: cells; type: cell-based, rat; conditions: assay number 8; 5 mM glucose;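 note: secreted insulin quantified by homogeneous immunoassay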

COc1ccc2cc1Oc1ccc(cc1)C[C@H]1c3c(cc4c(c3Oc3cc5c(cc3OC)CCN(C)[C@@H]5C2)OCO4)CCN1C [NCGC00161621-03]
Hela CellCycMod PI 2N IC50/EC50 ([1]; 2N): > 10 µM | Hela CellCycMod PI S Phase IC50/EC50 [1]: > 10 µM | Hela CellCycMod PI 4N IC50/EC50 ([1]; 4N): > 10 µM | Hela CellCycMod PI MI IC50/EC50 ([1]; MI): > 10 µM | Hela CellCycMod PI Cell Number IC50/EC50 [1]: 5.5384 µM | Basal_Viability ATP Colo 320 IC50/EC50 [2]: 1.426 µM | Basal_Viability ATP DLD-1 IC50/EC50 [3]: 12.3697 µM | WntCondMedia_Alk Phos C2C12 IC50/EC50 [4]: 2.0494 µM | Basal_Viability ATP SW480 IC50/EC50 [5]: 0.308 µM | hKDR LANCE IC50/EC50 [6]: > 20 µM | Basal_Viability ATP HCT116 IC50/EC50 [7]: 9.5422 µM | GSK3b inh pretreated_Viability ATP HCT116 IC50/EC50 [8]: 3.567 µM | hp70S6K1 LANCE IC50/EC50 [9]: > 20 µM | Basal_Viability ATP HT-29 IC50/EC50 [10]: 1.365 µM | WntCondMedia_bCatenin C2C12 IC50/EC50 [11]: 5.6301 µM | VEGF_ADSC\ECFC Angio Hoechst NucArea IC50/EC50 [12]: > 10 µM | hGSK3b LANCE IC50/EC50 [13]: > 20 µM | hFLT3 LANCE IC50/EC50 [14]: > 20 µM | Basal_Viability ATP RKO IC50/EC50 [15]: 3.787 µM | hJAK2 LANCE IC50/EC50 [16]: > 20 µM | Basal_Viability ATP SNU-C1 IC50/EC50 [17]: 7.483 µM | VEGF_ADSC\ECFC Angio CD31 TubeArea IC50/EC50 [18]: 3.0213 µM

CCCSc1ccc2nc(NC(=O)OC)[nH]c2c1 [NCGC00016876-12]
IC50/EC50, Hela CellCycMod PI 2N (assay number 14) ([1]; 2N): 0.0656 µM | IC50/EC50, Hela CellCycMod PI 4N (assay number 16) ([1]; 4N): 0.0612 µM | IC50/EC50, Hela CellCycMod PI Cell Number (assay number 18) ([1]; Cell Number): 0.0377 µM | IC50/EC50, Hela CellCycMod PI MI (assay number 17) ([1]; MI): 0.0615 µM | IC50/EC50, Hela CellCycMod PI S Phase (assay number 15) ([1]; S Phase): > 10 µM | IC50/EC50, Basal_Viability ATP Colo 320 (assay number 27) ([2]; basal): 0.502 µM | IC50/EC50, Basal_Viability ATP DLD-1 (assay number 23) ([3]; basal): 0.1085 µM | IC50/EC50, WntCondMedia_Alk Phos C2C12 (assay number 6) [4]: 12.2685 µM | IC50/EC50, Basal_Viability ATP SW480 (assay number 24) ([5]; basal): > 20 µM | IC50/EC50, hKDR LANCE (assay number 32) [6]: > 20 µM | IC50/EC50, Basal_Viability ATP HCT116 (assay number 25) [7]: 0.1118 µM | IC50/EC50, GSK3b inh pretreated_Viability ATP HCT116 (assay number 26) ([8]; GSK3b inh pretreated): 0.1579 µM | IC50/EC50, hp70S6K1 LANCE (assay number 31) [9]: > 20 µM | IC50/EC50, Basal_Viability ATP HT-29 (assay number 28) ([10]; basal): > 20 µM | IC50/EC50, WntCondMedia_bCatenin C2C12 (assay number 5) [11]: 1.2764 µM | IC50/EC50, VEGF_ADSC\ECFC Angio Hoechst NucArea (assay number 3) [12]: > 10 µM | IC50/EC50, hGSK3b LANCE (assay number 34) [13]: > 20 µM | IC50/EC50, hFLT3 LANCE (assay number 35) [14]: > 20 µM | IC50/EC50, Basal_Viability ATP RKO (assay number 29) ([15]; basal): 0.1653 µM | IC50/EC50, hJAK2 LANCE (assay number 33) [16]: > 20 µM | IC50/EC50, Basal_Viability ATP SNU-C1 (assay number 30) ([17]; basal): > 20 µM | IC50/EC50, VEGF_ADSC\ECFC Angio CD31 TubeArea (assay number 2) [18]: 0.3554 µM

Cc1nc2ccc(CN(C)c3ccc(C(=O)N[C@@H](CCC(=O)O)C(=O)O)s3)cc2c(=O)[nH]1 [NCGC00229704-01]
Hela CellCycMod PI 2N IC50/EC50 ([1]; 2N): > 10 µM | Hela CellCycMod PI 4N IC50/EC50 ([1]; 4N): > 10 µM | Hela CellCycMod PI MI IC50/EC50 ([1]; MI): > 10 µM | Hela CellCycMod PI Cell Number IC50/EC50 [1]: > 10 µM | Basal_Viability ATP Colo 320 IC50/EC50 [2]: > 20 µM | Basal_Viability ATP DLD-1 IC50/EC50 [3]: > 20 µM | WntCondMedia_Alk Phos C2C12 IC50/EC50 [4]: 0.0042 µM | Basal_Viability ATP SW480 IC50/EC50 [5]: 0.001 µM | hKDR LANCE IC50/EC50 [6]: > 20 µM | Basal_Viability ATP HCT116 IC50/EC50 [7]: 0.00424 µM | GSK3b inh pretreated_Viability ATP HCT116 IC50/EC50 [8]: 0.0023 µM | hp70S6K1 LANCE IC50/EC50 [9]: > 20 µM | Basal_Viability ATP HT-29 IC50/EC50 [10]: > 20 µM | WntCondMedia_bCatenin C2C12 IC50/EC50 [11]: 0.0127 µM | VEGF_ADSC\ECFC Angio Hoechst NucArea IC50/EC50 [12]: > 10 µM | hGSK3b LANCE IC50/EC50 [13]: 3.99 µM | hFLT3 LANCE IC50/EC50 [14]: > 20 µM | Basal_Viability ATP RKO IC50/EC50 [15]: 0.00288 µM | hJAK2 LANCE IC50/EC50 [16]: > 20 µM | Basal_Viability ATP SNU-C1 IC50/EC50 [17]: > 20 µM | VEGF_ADSC\ECFC Angio CD31 TubeArea IC50/EC50 [18]: 0.3544 µM

Cc1cc2c(C(C)C)c(O)c(O)c(C=O)c2c(O)c1-c1c(C)cc2c(C(C)C)c(O)c(O)c(C=O)c2c1O [NCGC00016423-15]
Hela CellCycMod PI 2N IC50/EC50 ([1]; 2N): > 10 µM | Hela CellCycMod PI S Phase IC50/EC50 [1]: > 10 µM | Hela CellCycMod PI 4N IC50/EC50 ([1]; 4N): > 10 µM | Hela CellCycMod PI MI IC50/EC50 ([1]; MI): > 10 µM | Hela CellCycMod PI Cell Number IC50/EC50 [1]: 3.7083 µM | Basal_Viability ATP Colo 320 IC50/EC50 ([2]; basal): 1.3794 µM | Basal_Viability ATP DLD-1 IC50/EC50 ([3]; basal): 0.8345 µM | WntCondMedia_Alk Phos C2C12 IC50/EC50 [4]: > 20 µM | Basal_Viability ATP SW480 IC50/EC50 ([5]; basal): 0.9563 µM | hKDR LANCE IC50/EC50 [6]: > 20 µM | Basal_Viability ATP HCT116 IC50/EC50 [7]: 0.7844 µM | hp70S6K1 LANCE IC50/EC50 [9]: > 20 µM | Basal_Viability ATP HT-29 IC50/EC50 ([10]; basal): 1.4237 µM | mSTC-1 GLP1 Secretion IC50/EC50 [19]: > 40 µM | WntCondMedia_bCatenin C2C12 IC50/EC50 [11]: 3.4859 µM | hGSK3b LANCE IC50/EC50 [13]: > 20 µM | hFLT3 LANCE IC50/EC50 [14]: > 20 µM | Basal_Viability ATP RKO IC50/EC50 ([15]; basal): 0.9156 µM | hJAK2 LANCE IC50/EC50 [16]: > 20 µM | hNCI-H716 GLP1 Secretion IC50/EC50 [20]: 23.4306 µM | Basal_Viability ATP SNU-C1 IC50/EC50 ([17]; basal): 0.3538 µM

CC(=O)Oc1ccc(C2(c3ccc(OC(C)=O)cc3)Oc3ccccc3NC2=O)cc1 [NCGC00182998-01]
Hela CellCycMod PI 2N IC50/EC50 ([1]; 2N): > 10 µM | Hela CellCycMod PI S Phase IC50/EC50 [1]: > 10 µM | Hela CellCycMod PI 4N IC50/EC50 ([1]; 4N): > 10 µM | Hela CellCycMod PI MI IC50/EC50 ([1]; MI): > 10 µM | Hela CellCycMod PI Cell Number IC50/EC50 [1]: 5.7532 µM | Basal_Viability ATP Colo 320 IC50/EC50 [2]: > 20 µM | Basal_Viability ATP DLD-1 IC50/EC50 [3]: 19.7291 µM | WntCondMedia_Alk Phos C2C12 IC50/EC50 [4]: 13.9611 µM | Basal_Viability ATP SW480 IC50/EC50 [5]: 9.1881 µM | hKDR LANCE IC50/EC50 [6]: > 20 µM | GSK3b inh pretreated_Viability ATP HCT116 IC50/EC50 [8]: 3.2604 µM | hp70S6K1 LANCE IC50/EC50 [9]: > 20 µM | Basal_Viability ATP HT-29 IC50/EC50 [10]: > 20 µM | WntCondMedia_bCatenin C2C12 IC50/EC50 [11]: > 20 µM | VEGF_ADSC\ECFC Angio Hoechst NucArea IC50/EC50 [12]: > 10 µM | hGSK3b LANCE IC50/EC50 [13]: > 20 µM | hFLT3 LANCE IC50/EC50 [14]: > 20 µM | Basal_Viability ATP RKO IC50/EC50 [15]: 9.2255 µM | hJAK2 LANCE IC50/EC50 [16]: > 20 µM | Basal_Viability ATP SNU-C1 IC50/EC50 [17]: > 20 µM | VEGF_ADSC\ECFC Angio CD31 TubeArea IC50/EC50 [18]: 2.2736 µM | 5mMGluc_INS1E SecretionMod IC50/EC50 [21]: > 33.33 µM
